The subject of the experiment is Molt-4 cell line. The format is cell-based. The protocol: Molt-4 cell line (ATCC catalog #CRL-1582) was grown in specific serum-supplemented media (RPMI-1640, Invitrogen catalog #72400) as recommended by ATCC. A day prior to the initiation of the study, cells were split at optimal cell density (2×10^5-5×10^5 cells/ml) to assure actively dividing cells. The next day, cells were washed twice in serum-free Opti-MEM media (Invitrogen, Catalog #51985) and cells were then plated at optimal cell density (10,000 cells/well) in 50 μl Opti-MEM media or Opti-MEM supplemented with 2%, 4% or 10% human serum (Bioreclamation, catalog #HMSRM) in 96-well white tissue culture plate (Nunc, catalog #136102).
For serum free experiment, peptidomimetic macrocycles were diluted from 2 mM stocks (100% DMSO) in sterile water to prepare 400 μM working solutions. The macrocycles and controls were diluted 10-fold first and then serially two-fold diluted in Opti-MEM in dosing plates to provide concentrations of between 1.2 and 40 μM. 50 μL of each dilution was then added to the appropriate wells of the test plate to achieve final concentrations of the polypeptides equal to between 0.6 to 20 μM. For studies using Opti-MEM supplemented with human serum (Bioreclamation, catalog #HMSRM), peptidomimetic macrocycles were diluted from 10 mM stocks (100% DMSO) in sterile water to prepare 2 mM working solutions. The peptide macrocycles and controls were diluted 10-fold first and then serially two-fold diluted in Opti-MEM in the presence of 2%, 4% or 10% of human serum to provide concentrations of the polypeptides equal to between 6.25 to 200 μM in dosing plates. 50 μL of each dilution was then added to the appropriate welts of the test plate to achieve final concentrations of the polypeptides equal to between 3.125 to 100 μM. Controls included wells without polypeptides containing the same concentration of DMSO as the wells containing the macrocycles, wells containing 0.1% Triton X-100 and wells containing no cells. Plates were incubated for 48 hours at 37° C. in humidified 5% CO2 atmosphere.
At the end of the incubation period, CellTiter-Glo assay was performed according to manufacturer's instructions (Promega, catalog #G7573) and luminescence was measured using Synergy HT Plate reader (BioTek).
The following macrocycles derived from the human MAML peptide sequences were tested in cell viability assays with the MOLT-4 tumor cell line: […]

The structures appear in SMILES notation. Where two headings read alike, the source gives them in different places. Where a SMILES comes first, the peptide text is derived from it. Bridges are numbered along the chain shown (N, C = ends). [ ]: non-standard residue; d: D form. R8 = C=CCCCCCC[C@@](C)(N)C(=O)O; S5 = C=CCCC[C@](C)(N)C(=O)O; Abu = CC[C@H](N)C(=O)O

Here are results for eleven compounds from US20120115793A1, “PEPTIDOMIMETIC MACROCYCLES” (Alleron Therapeutics, Inc, priority 2008, published 2012).

A word on the EC50: it is the concentration giving half of the maximal effect.

Regarding `CC[C@@H]1NC(=O)[C@H](CC(C)C)NC(=O)[C@@](C)(NC(=O)[C@@H](NC(=O)[C@H](CCCNC(=N)N)NC(=O)[C@H](CCCNC(=N)N)NC(=O)[C@H](CCCNC(=N)N)NC(=O)[C@H](CC(C)C)NC(=O)[C@H](C)NC(C)=O)[C@@H](C)CC)CCCC=CCCC[C@@](C)(C(=O)N[C@@H](Cc2c[nH]cn2)C(=O)N[C@@H](Cc2c[nH]cn2)C(=O)N[C@@H](CO)C(=O)N[C@H](C(=O)N[C@@H](C)C(=O)N[C@@H](CCC(=O)O)C(=O)N[C@@H](C)C(=O)N[C@@H](CCCNC(=N)N)C(=O)N[C@@H](Cc2ccc(O)cc2)C(=O)N[C@@H](CCC(=O)O)C(=O)N[C@@H](C)C(=O)N[C@H](C(N)=O)C(C)C)[C@@H](C)O)NC(=O)[C@H](C)NC1=O` [Compound 26, Ac-ALRRRI$LAbuA$HHSTAEARYEAV-NH2] (Ac-ALRRRI[S5]L[Abu]A[S5]HHSTAEARYEAV-NH2; staple 7-11), for the setting “48 h”, the half-maximal effective concentration (EC50) is > 20 µM.

Turning to `CC[C@H](C)[C@H](NC(=O)[C@H](CCCNC(=N)N)NC(=O)[C@H](CCCNC(=N)N)NC(C)=O)C(=O)N[C@@H](CCC(=O)O)C(=O)N[C@@H](CC(C)C)C(=O)N[C@@H](C)C(=O)N[C@@H](CCCNC(=N)N)C(=O)N[C@@H](CCCNC(=N)N)C(=O)N[C@@H](Cc1c[nH]cn1)C(=O)N[C@@H](Cc1c[nH]cn1)C(=O)N[C@@]1(C)CCCC=CCCC[C@@](C)(C(=O)N[C@@H](CCCNC(=N)N)C(=O)N[C@@H](Cc2ccc(O)cc2)C(=O)N[C@@H](CCC(=O)O)C(=O)N[C@@H](C)C(=O)N[C@H](C(N)=O)C(C)C)NC(=O)[C@H](CCC(=O)O)NC(=O)[C@H](C)NC(=O)[C@H]([C@@H](C)O)NC1=O` [Compound 17, Ac-RRIELARRHH$TAE$RYEAV-NH2] (Ac-RRIELARRHH[S5]TAE[S5]RYEAV-NH2; staple 11-15), the EC50 (48 h) was > 20 µM.

Turning to `CC[C@H](C)[C@@H]1NC(=O)[C@@](C)(NC(=O)[C@H](CCCNC(=N)N)NC(=O)[C@H](CCCNC(=N)N)NC(=O)[C@H](CC(C)C)NC(=O)[C@H](CCCNC(=N)N)NC(=O)[C@H](CCC(=O)O)NC(C)=O)CCCC=CCCC[C@@](C)(C(=O)N[C@@H](CCCNC(=N)N)C(=O)N[C@@H](CCCNC(=N)N)C(=O)N[C@@H](Cc2c[nH]cn2)C(=O)N[C@@H](Cc2c[nH]cn2)C(=O)N[C@@H](CO)C(=O)N[C@H](C(N)=O)[C@@H](C)O)NC(=O)[C@H](CC(C)C)NC(=O)[C@H](CCC(=O)O)NC1=O` [Compound 16, Ac-ERLRR$IEL$RRHHST-NH2] (Ac-ERLRR[S5]IEL[S5]RRHHST-NH2; staple 6-10), the EC50 (48 h) was determined as 11.7 µM.

`CC[C@H](NC(=O)[C@H](CC(C)C)NC(=O)[C@H](CCC(=O)O)NC(=O)[C@@H](NC(=O)[C@H](CCCNC(=N)N)NC(=O)[C@H](CCCNC(=N)N)NC(=O)[C@H](CCCNC(=N)N)NC(=O)[C@H](CC(C)C)NC(=O)[C@H](C)NC(C)=O)[C@@H](C)CC)C(=O)N[C@@H](C)C(=O)N[C@]1(C)CCCCCCC=CCCC[C@@](C)(C(=O)N[C@@H](CCCNC(=N)N)C(=O)N[C@@H](Cc2ccc(O)cc2)C(=O)N[C@@H](CCC(=O)O)C(=O)N[C@@H](C)C(=O)N[C@H](C(N)=O)C(C)C)NC(=O)[C@H](CCC(=O)O)NC(=O)[C@H](CC)NC(=O)[C@H]([C@@H](C)O)NC(=O)[C@H](CO)NC(=O)[C@H](Cc2c[nH]cn2)NC(=O)[C@H](Cc2c[nH]cn2)NC1=O` [Compound 25, Ac-ALRRRIELAbuA$r8HHSTAbuE$RYEAV-NH2] (Ac-ALRRRIEL[Abu]A[R8]HHST[Abu]E[S5]RYEAV-NH2; staple 11-18): under “MOLT-4 cells, 48 hours incubation, CellTiter-Glo, read-out: Molt 4 viability (EC50)”, the EC50 is > 20 µM.

Regarding `CC[C@H](C)[C@H](NC(=O)[C@H](CCCNC(=N)N)NC(=O)[C@H](CCCNC(=N)N)NC(=O)[C@H](CCCNC(=N)N)NC(=O)[C@H](CC(C)C)NC(=O)[C@H](C)NC(=O)[C@H](CCC(=O)O)NC(C)=O)C(=O)N[C@@]1(C)CCCC=CCCC[C@@](C)(C(=O)N[C@@H](Cc2c[nH]cn2)C(=O)N[C@@H](Cc2c[nH]cn2)C(=O)N[C@@H](CO)C(=O)N[C@H](C(N)=O)[C@@H](C)O)NC(=O)[C@H](C)NC(=O)[C@H](CS)NC(=O)[C@H](CC(C)C)NC1=O` [Compound 7, Ac-EALRRRI$LCA$HHST-NH2] (Ac-EALRRRI[S5]LCA[S5]HHST-NH2; staple 8-12), the EC50 (48 h) is 11.5 µM.

Consider `CC[C@H](C)[C@H](NC(=O)[C@H](CCCNC(=N)N)NC(=O)[C@H](CCCNC(=N)N)NC(=O)[C@H](CCCNC(=N)N)NC(=O)[C@H](CC(C)C)NC(=O)[C@H](C)NC(C)=O)C(=O)N[C@@]1(C)CCCC=CCCC[C@@](C)(C(=O)N[C@@H](Cc2c[nH]cn2)C(=O)N[C@@H](Cc2c[nH]cn2)C(=O)N[C@@H](CO)C(=O)N[C@H](C(N)=O)[C@@H](C)O)NC(=O)[C@H](C)NC(=O)[C@H](CO)NC(=O)[C@H](CC(C)C)NC1=O` [Compound 21, Ac-ALRRRI$LSA$HHST-NH2] (Ac-ALRRRI[S5]LSA[S5]HHST-NH2; staple 7-11), for which, under “48 h”, the EC50 is > 20 µM.

On to `CC[C@H](C)[C@H](NC(=O)[C@H](CCCNC(=N)N)NC(=O)[C@H](CCCNC(=N)N)NC(=O)[C@H](CCCNC(=N)N)NC(=O)[C@H](CC(C)C)NC(=O)[C@H](C)NC(C)=O)C(=O)N[C@@]1(C)CCCC=CCCC[C@@](C)(C(=O)N[C@@H](Cc2c[nH]cn2)C(=O)N[C@@H](Cc2c[nH]cn2)C(=O)N[C@@H](CO)C(=O)N[C@H](C(N)=O)[C@@H](C)O)NC(=O)[C@H](C)NC(=O)[C@H](C)NC(=O)[C@H](CC(C)C)NC1=O` [Compound 20, Ac-ALRRRI$LAA$HHST-NH2] (Ac-ALRRRI[S5]LAA[S5]HHST-NH2; staple 7-11), for which the EC50 (48 h) is ≥ 24.4 µM.

Turning to `CC[C@H](C)[C@H](NC(=O)[C@H](CCCNC(=N)N)NC(=O)[C@H](CCCNC(=N)N)NC(=O)[C@H](CCCNC(=N)N)NC(=O)[C@H](CC(C)C)NC(=O)[C@H](CCCNC(=N)N)NC(=O)[C@H](CCC(=O)O)NC(C)=O)C(=O)N[C@@H](CCC(=O)O)C(=O)N[C@@H](CC(C)C)C(=O)N[C@@H](CS)C(=O)N[C@@H](CCCNC(=N)N)C(=O)N[C@@H](CCCNC(=N)N)C(=O)N[C@@H](Cc1c[nH]cn1)C(=O)N[C@@H](Cc1c[nH]cn1)C(=O)N[C@@H](CO)C(=O)N[C@H](C(N)=O)[C@@H](C)O` [Compound 2, Ac-ERLRRRIELCRRHHST-NH2] (Ac-ERLRRRIELCRRHHST-NH2), for the setting “48 h”, the EC50 is > 20 µM.

As for `CC[C@H](C)[C@@H]1NC(=O)[C@H](CCCNC(=N)N)NC(=O)[C@H](CCCNC(=N)N)NC(=O)[C@@](C)(NC(=O)[C@H](CC(C)C)NC(=O)[C@H](CCC(=O)O)NC(=O)[C@H](CCCNC(=N)N)NC(C)=O)CCCC=CCCC[C@@](C)(C(=O)N[C@@H](CC(C)C)C(=O)N[C@@H](CS)C(=O)N[C@@H](CCCNC(=N)N)C(=O)N[C@@H](CCCNC(=N)N)C(=O)N[C@@H](Cc2c[nH]cn2)C(=O)N[C@@H](Cc2c[nH]cn2)C(=O)N[C@@H](CO)C(=O)N[C@H](C(N)=O)[C@@H](C)O)NC1=O` [Compound 8, Ac-REL$RRI$LCRRHHST-NH2] (Ac-REL[S5]RRI[S5]LCRRHHST-NH2; staple 4-8), the EC50 (48 h) stood at 11.5 µM.

In the case of `CC[C@H](C)[C@H](NC(=O)[C@H](CCCNC(=N)N)NC(=O)[C@H](CCCNC(=N)N)NC(C)=O)C(=O)N[C@@H](CCC(=O)O)C(=O)N[C@@H](CC(C)C)C(=O)N[C@@H](C)C(=O)N[C@@H](CCCNC(=N)N)C(=O)N[C@@H](CCCNC(=N)N)C(=O)N[C@@]1(C)CCCC=CCCC[C@@](C)(C(=O)N[C@@H](CCC(=O)O)C(=O)N[C@@H](C)C(=O)N[C@@H](CCCNC(=N)N)C(=O)N[C@@H](Cc2ccc(O)cc2)C(=O)N[C@@H](CCC(=O)O)C(=O)N[C@@H](C)C(=O)N[C@H](C(N)=O)C(C)C)NC(=O)[C@H]([C@@H](C)O)NC(=O)[C@H](CO)NC(=O)[C@H](Cc2c[nH]cn2)NC1=O` [Compound 18, Ac-RRIELARR$HST$EARYEAV-NH2] (Ac-RRIELARR[S5]HST[S5]EARYEAV-NH2; staple 9-13), where the note is “48 h”, the EC50 is > 20 µM.

For `CC[C@H](C)[C@H](NC(=O)[C@H](CCCNC(=N)N)NC(=O)[C@H](CCCNC(=N)N)NC(=O)[C@H](CCCNC(=N)N)NC(=O)[C@H](CC(C)C)NC(=O)[C@H](C)NC(C)=O)C(=O)N[C@@H](CCC(=O)O)C(=O)N[C@@H](CC(C)C)C(=O)N[C@@H](C)C(=O)N[C@@H](C)C(=O)N[C@@H](CCCNC(=N)N)C(=O)N[C@@H](Cc1c[nH]cn1)C(=O)N[C@@H](Cc1c[nH]cn1)C(=O)N[C@@]1(C)CCCC=CCCC[C@@](C)(C(=O)N[C@@H](CCCNC(=N)N)C(=O)N[C@@H](Cc2ccc(O)cc2)C(=O)N[C@@H](CCC(=O)O)C(=O)N[C@@H](C)C(=O)N[C@H](C(N)=O)C(C)C)NC(=O)[C@H](CCC(=O)O)NC(=O)[C@H](C)NC(=O)[C@H]([C@@H](C)O)NC1=O` [Compound 24, Ac-ALRRRIELAARHH$TAE$RYEAV-NH2] (Ac-ALRRRIELAARHH[S5]TAE[S5]RYEAV-NH2; staple 14-18), the EC50 (48 h) was > 20 µM.
